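Values below derive from 48-hour exposures of cells grown in 96-well plates, with endpoints linearly interpolated between the two concentrations bracketing the appropriate inhibition level. Definition used: TGI = concentration required for complete inhibition of growth.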
How the values were obtained:
Test in all cases: DTP human tumour cell line panel, 48 h
[1] = system: HCT-116 colon
[2] = system: HCC-2998 colon
[3] = system: BT-549 breast
[4] = system: SK-MEL-5 melanoma
[5] = system: K-562 leukemia
[6] = system: HOP-62 NSCLC
[7] = system: EKVX NSCLC
[8] = system: T-47D breast
[9] = system: KM12 colon
[10] = system: MDA-MB-435
[11] = system: OVCAR-5 ovarian
[12] = system: NCI-H226 lung
[13] = system: A498 renal
[14] = system: NCI-H460 lung
[15] = system: SF-268 CNS
[16] = system: ACHN renal
[17] = system: DU-145 prostate
[18] = system: SN12C renal
[19] = system: MCF7 breast
[20] = system: U251 CNS
[21] = system: LOX IMVI melanoma
[22] = system: NCI/ADR-RES ovarian
[23] = system: UACC-62 melanoma
[24] = system: HS 578T breast
[25] = system: SF-295 CNS
[26] = system: OVCAR-4 ovarian
[27] = system: HCT-15 colon
[28] = system: SK-OV-3 ovarian
[29] = system: OVCAR-8 ovarian
[30] = system: HT29 colon
[31] = system: COLO 205 colon
[32] = system: NCI-H23 lung
[33] = system: RPMI-8226 leukemia
[34] = system: OVCAR-3 ovarian
[35] = system: HL-60(TB) leukemia
[36] = system: SNB-19 CNS
[37] = system: CCRF-CEM leukemia
[38] = system: SW-620 colon

Nc1ccc2[nH]c(C(=O)N3CC(CCl)c4c3cc(N)c3ccccc43)cc2c1 (stereo not drawn)
TGI [1]: 1090 nM
TGI [2]: < 10 nM
TGI [3]: < 24.4 nM
TGI [4]: < 41.4 nM
TGI [5]: > 100000 nM
TGI [6]: 55.6 nM
TGI [7]: 31.3 nM
TGI [8]: 455 nM
TGI [9]: 71.4 nM
TGI [10]: 25 nM
TGI [11]: > 100000 nM
TGI [12]: < 10 nM
TGI [13]: 28.8 nM
TGI [14]: < 10 nM
TGI [15]: < 10 nM
TGI [16]: 10.3 nM
TGI [17]: < 10 nM
TGI [18]: 32.5 nM
TGI [19]: 153 nM
TGI [20]: 147 nM
TGI [21]: 14.5 nM
TGI [22]: < 10 nM
TGI [23]: 10.1 nM
TGI [24]: 57 nM
TGI [25]: < 10 nM
TGI [26]: < 10 nM
TGI [27]: 1280 nM
TGI [28]: 1210 nM
TGI [29]: 23.6 nM
TGI [30]: < 22.9 nM
TGI [31]: 22.3 nM
TGI [32]: < 10 nM
TGI [33]: < 25.5 nM
TGI [34]: > 100000 nM
TGI [35]: 16.2 nM
TGI [36]: < 48.9 nM
TGI [37]: > 100000 nM
TGI [38]: 124 nM
